Experimental data published in patent US6242449A, “3-benzoylindole derivatives and drugs containing the same” (Zeria Pharmaceutical Co., Ltd., priority 1997, dated 2001).
Where a name gives a salt, the structure may show the parent alone.

Experiments:
[1] = biological target: Testosterone 5α-reductase; assay: Testosterone 5α-reductase inhibitory action, nuclear fraction of rat prostates; type: biochemical, Wistar rat; details: rat prostate nuclear fraction, [4-^14 C]-testosterone, NADPH, pH 7.0, 60 minutes at 37° C.
Protocol: Male Wistar rats (age: 9-10 weeks old) were anesthetized with ether. The abdomen of each rat was median-cut to thereby remove the prostate. The isolated prostates were weighed and homogenized in 3 tissue volumes of 50 mM Tris-HCl buffer (pH 7.2) containing 0.25 M sucrose. The homogenates were filtered with gauze and centrifuged at 3,000 rpm for 10 minutes. The pellets were resuspended in a buffer as described above and the resultant suspension was used as a nuclear fraction.
The nuclear fraction of the prostates (0.1 ml), 5 mM NADPH (0.1 ml), and a test drug solution (DMSO solution containing the test drug; 0.01 ml) were added to 50 mM Tris-HCl buffer (pH 7.0; 0.78 ml). Reaction was initiated by addition of 150 μM [4-^14 C]-testosterone (0.01 ml) to the resultant solution, and the reaction mixture was incubated for 60 minutes at 37° C. After incubation, reaction was stopped by addition of ethyl acetate (4 ml), and simultaneously, the reaction mixture was subjected to extraction. The extract (3 ml) was brought to dryness through evaporation with nitrogen gas. Ethyl acetate (40 μl) was added thereto, and a 10 μl portion was applied to a silica gel thin layer plate for development with a solvent mixture of ethyl acetate and cyclohexane (1:1). After development, the plate was subjected to autoradiography, and spots attributed to testosterone, dihydrotestosterone, and other metabolites were collected by scraping. Radioactivity of the spots was counted in a liquid scintillation counter. From the total radioactivity and the radioactivity of 5α-metabolites, reaction ratio was obtained. IC50 of the compound, which represents the inhibitory activity of the test compound, was calculated from the reaction ratio of the control solvent and the reaction ratio obtained when the compound was added.

[2] = biological target: T1, α1 -adrenergic receptor (Oryctolagus cuniculus, UniProt O02824); assay: α1-Adrenergic receptor blocking action, rabbit prostate smooth muscle strips (phenylephrine contraction); type: cell-based
T1 construct: Transverse smooth muscle strips were prepared; from tissue; host or cells: rabbit prostate, transverse smooth muscle strips
T1 sequence (O02824 1-466): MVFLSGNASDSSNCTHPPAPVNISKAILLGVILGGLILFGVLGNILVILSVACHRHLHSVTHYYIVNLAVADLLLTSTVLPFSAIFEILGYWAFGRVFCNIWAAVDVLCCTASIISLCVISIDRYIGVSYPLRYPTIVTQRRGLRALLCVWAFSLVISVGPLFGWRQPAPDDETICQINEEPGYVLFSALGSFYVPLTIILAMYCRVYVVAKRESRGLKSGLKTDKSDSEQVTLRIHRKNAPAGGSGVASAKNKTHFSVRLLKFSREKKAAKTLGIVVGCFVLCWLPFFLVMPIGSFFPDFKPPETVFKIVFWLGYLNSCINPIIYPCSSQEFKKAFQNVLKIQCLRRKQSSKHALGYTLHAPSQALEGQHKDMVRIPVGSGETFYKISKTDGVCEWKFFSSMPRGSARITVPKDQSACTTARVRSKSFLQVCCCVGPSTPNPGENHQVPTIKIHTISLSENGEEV
Protocol: (§1) Rabbits were sacrificed by exsanguination, and in each rabbit the urethra and prostate were isolated from the lower urinary tract system. Transverse smooth muscle strips were prepared. Each strip was suspended in a 37° C. Krebs-solution-containing organ bath which had been bubbled with 95% O2 and 5% CO2. Isometric contraction under a resting tension of 1 g was recorded with an isometric transducer (TB-651T, Nihon Koden) on a thermal pen-type recorder (RECTI HORIZ 8K, Nihon Denki San'ei).
(§2) The strip was allowed to stand for equilibration for 60 minutes, and contractions were elicited by a certain concentration of phenylephrine (10^-5 M). The organ bath was washed with a nutrient liquid. Thereafter, the above procedure was repeated at 60-minute intervals until constant contraction responses were obtained. Subsequently, dose-response curves were obtained by administration of phenylephrine in an accumulative manner (10^-7 to 3×10^-4 M). After the strips were washed and then rested for 60 minutes, the strips were treated with a test drug solution (i.e., DMSO solution containing the test drug; 10^-7 to 10^-5 M) for 30 minutes, to thereby obtain dose-response curves for phenylephrine.
(§3) The composition of the nutrient solution was as follows.
(§4) In all cases, 10^-5 M propranolol (β-adrenaline antagonist) was administered 10 minutes before administration of the drug.
(§5) The efficacy of each test drug in terms of α1 -adrenergic receptor blocking action was assessed from calculation of pA2 (inverse of logarithm of the mole concentration of antagonist which requires, in the presence of an antagonist, twice the concentration of an agonist that provides an effect equal to that obtained in the absence of an antagonist).

[3] = biological target: T1, α1 -adrenergic receptor; assay: α1-Adrenergic receptor blocking action, rabbit urethra smooth muscle strips (phenylephrine contraction); type: cell-based
Protocol: as §1, §2, §3, §4, §5

[4] = rabbit prostate strips, phenylephrine 10^-7 to 3×10^-4 M, test drug 30 minutes, 10^-5 M propranolol present, read-out: Prostate (pA2) (converted)
[5] = rabbit urethra strips, phenylephrine 10^-7 to 3×10^-4 M, test drug 30 minutes, 10^-5 M propranolol present, read-out: Urethra (pA2) (converted)

SMILES | IC50 [1] [nM] | Kb [2] [nM] | Kb [3] [nM] | Kb [2, 4] [nM] | Kb [3, 5] [nM]
CCc1ccc(CNc2ccc(C(=O)c3cn(CCCC(=O)O)c4ccccc34)cc2OCCCN2CCN(c3ccccc3OC)CC2)cc1 [Example 1, 4-{3-{4-(4-Ethylphenyl)methylamino-3-{3-[4-(2-methoxyphenyl)piperazin-1-yl]propoxy}benzoyl}indol-1-yl}butanoic acid hydrochloride] | 0.7 | 224 | 302 |  | 
COc1ccccc1N1CCN(CCCOc2cc(C(=O)c3cn(CCCC(=O)O)c4ccccc34)ccc2NCc2ccccc2)CC1 [Example 5] |  |  |  | 53.7 | 174
COc1ccccc1N1CCN(CCCOc2cc(C(=O)c3cn(CCCC(=O)O)c4ccccc34)ccc2NCc2ccc(C)cc2)CC1 [Example 7] | 0.86 |  |  | 95.5 | 316
CCOc1ccccc1N1CCN(CCCOc2cc(C(=O)c3cn(CCCC(=O)O)c4ccccc34)ccc2NCc2ccc(C)cc2)CC1 [Example 8, 4-{3-{4-[(4-Methylphenyl)methylamino]-3-{3-[4-(2-ethoxyphenyl)piperazin-1-yl]propoxy}benzoyl}indol-1-yl}butanoic acid] | 1 |  |  |  | 
CCOc1ccccc1N1CCN(CCCOc2cc(C(=O)c3cn(CCCC(=O)O)c4ccccc34)ccc2NCc2ccc(CC)cc2)CC1 [Example 10, 4-{3-{3-{3-[4-(2-Ethoxyphenyl)piperazin-1-yl]propoxy}-4-[(4-ethylphenyl)methylamino]benzoyl}indol-1-yl}butanoic acid] | 0.47 |  |  |  | 
